Assay results from patent US11731977B2, “SGC stimulators” (Cyclerion Therapeutics, Inc., priority 2016, dated 2023).
Read-outs that look alike come from different tables or passages of the source.

Legend:
[1] = Rat cerebrospinal fluid (CSF) pharmacokinetic properties (Example 4); format: in vivo; settings: male, Sprague-Dawley
Procedure: Protocol PK in rats was determined following oral dosing. For the oral (PO) experiments, a group of 6 male Sprague-Dawley rats with an indwelling catheter placed in the cistema magna were used. The PO group was dosed with 10 mg/kg or 1 mg/kg of a compound formulated as a solution in PEG400. PO doses were administered by oral gavage and delivered to the stomach using a syringe and gavage tube. Following oral dosage administration, the gavage tube was flushed with approximately 0.5 mL of water to ensure complete delivery of the full dose.
Plasma samples were collected as follows: samples of CSF and blood were collected at 1 hour, 2, and optionally at 4 hours post-dosing. CSF samples (0.05 mL) were collected through the intracisternal catheter. Blood samples (0.25 mL) were collected through retro-orbital sampling. These samples were kept on ice until processed for plasma. Blood samples were centrifuged at 3200 rpm for 5 minutes at approximately 5° C. within 1 hour of collection. Plasma was directly transferred to a 96-well plate tube (0.125 mL). Plug caps were placed on the tubes and the tubes frozen at approximately −70° C. and stored until analysis. Plasma was collected and analyzed for the presence of a compound.
Quantitation of Compounds. The compound in question and the internal standard were extracted from plasma and CSF by precipitation. Samples were analyzed using liquid chromatography (LC) with tandem mass spectrometric detection (MS/MS) using electrospray ionization. The standard curve range was from 1 to 1000 ng/mL. Results of the compounds described herein in this assay are illustrated in Table 4a below (10 mg/kg dose) and Tables 4b and 4c below (1 mg/kg).
Kp,uu is defined as the concentration ratio of unbound drug in CSF to unbound drug in plasma. Unbound drug in plasma (or free plasma concentration) is calculated by multiplying the total plasma concentration by the unbound fraction as determined by plasma protein binding. The CSF concentration is then divided by the free plasma concentration to determine the Kp,uu. (See e.g., Di et al., J. Med. Chem., 56, 2-12 (2013))

rats = test: Acute and tonic pain: healthy rats, paw pressure test (Example 13); settings: Compound I-1 p.o. 10 mg/kg, 120 minutes after treatment
[2] = system: cGMP in rat primary neurons; test: cGMP neuronal cell-based assay (Example 3); settings: Primary neuron; rat primary hippocampal neurons; 30 μM DETA-NO; cGMP by LC-MS/MS; 50% of high control (10 μM Compound Y); read-out: Abs EC50
Procedure: Rat primary neurons were isolated from fetuses of 18-day pregnant Sprague-Dawley females. The fetuses were collected in Hanks' balanced salt solution (HBSS) and brains were rapidly removed. The cerebral hippocampi were isolated and mechanically fragmented. Further tissue digestion was performed with 0.25% (wt/vol) trypsin solution in HBSS without Ca2+ and Mg2+ for 15 min at 37° C. After trypsination, cells were washed and resuspended in neurobasal medium supplemented with 0.5 mM L-glutamine, 12.5 uM glutamic acid, 2% B-27 and 100 U/mL penicillin, and 100 μg/mL streptomycin. Cells were plated at a density of 4×10^4 cells/well in a poly-D-lysine coated 384-well flat clear-bottom plate (Corning Cat No 354662). Cells were incubated 6-7 days at 37° C. in a humidified chamber with 5% CO2. Media was removed and cells were washed 1× with HBSS containing Ca2+ and Mg2+, and replaced with 40 uL HBSS containing 0.5 mM IBMX, and incubated for 15 minutes at 37° C. 10 uL of a 5× stock of test compounds with diethylenetriamine NONOate (DETA-NO) was added. Final concentration of DETA-NO was 30 μM. Cells were incubated for 20 min at 37° C. Medium was removed, 50 uL of ice-cold 10% acetic acid was added, and incubated for 60 minutes at 4° C. Following centrifugation at 4° C. for 5 minutes at 1000×g to pellet cell debris, the supernatant was aspirated to a clean plate and the samples were analyzed for cGMP content. cGMP concentrations were determined from each sample using LC-MS/MS.
Data were normalized to a high control using the following equation: 100*(Sample−Low Control)/(High Control−Low Control), where the low control is the average of 15 samples treated with 1% DMSO, and the high control is the average of 15 samples treated with 10 μM a known sGC stimulator Compound Y. Data were fit using a 4-parameter fit (log(agonist) vs. response—variable slope) using GraphPad Prism Software v.5. n=2 for all compounds. The Absolute EC50 was interpolated from the curve fit and is defined as the concentration at which a given compound elicits 50% of the high control response. Compounds failing to elicit a minimum response of 50% are reported as >30 μM. For compounds run in duplicate or n higher than 2, the result herein given is the geometric mean of the several results obtained.

[3] = 10 mg/kg PO, 1 h, unbound CSF/unbound plasma, read-out: Kp,uu (@ 1 h)
[4] = CSF, 10 mg/kg PO, 1 h, read-out: CSF Conc. (nM @ 1 h)

SMILES | Kp uu at 1 h [1, 3] | Kp uu at 1 h ([1]; CSF / unbound plasma, 1 mg/kg PO, @ 1 h, read-out: Kp,uu) | Kp uu at 2 h ([1]; CSF / unbound plasma, 1 mg/kg PO, @ 2 h) | Kp uu at 4 h ([1]; CSF / unbound plasma, 1 mg/kg PO, @ 4 h) | concentration at 1 h ([1]; CSF, 1 mg/kg PO, @ 1 h, read-out: CSF Conc.) | concentration at 2 h ([1]; CSF, 1 mg/kg PO, @ 2 h, read-out: CSF Conc.) | concentration at 4 h ([1]; CSF, 1 mg/kg PO, @ 4 h, read-out: CSF Conc.) | concentration at 1 h [1, 4] | EC50 [2] | % of activity vs. vehicle (rats)
Fc1ccccc1Cc1nc(-c2nc(C(F)(F)F)n[nH]2)cn2ccnc12 [Compound I-1, 8-(2-fluorobenzyl)-6-(3-(trifluoromethyl)-1H-1,2,4-triazol-5-yl)imidazo[1,2-a]pyrazine] | 0.9 | 1 | 1.4 | 1.9 | 21 nM | 35 nM | 39 nM | 210 nM | ≤ 100 nM | −6%
Fc1cccc(Cc2nc(-c3nc(C(F)(F)F)n[nH]3)cn3ccnc23)c1 [Compound I-2, 8-(3-Fluorobenzyl)-6-(3-(trifluoromethyl)-1H-1,2,4-triazol-5-yl)imidazo[1,2-a]pyrazine] | 0.9 | – | – | – | – | – | – | 59 nM | ≤ 100 nM | –
Fc1cccc(Cc2nc(-c3nc(C(F)(F)F)n[nH]3)cn3ccnc23)c1F [Compound I-10, 8-(2,3-Difluorobenzyl)-6-(3-(trifluoromethyl)-1H-1,2,4-triazol-5-yl)imidazo[1,2-a]pyrazine] | 3.1 | – | – | – | – | – | – | 108 nM | ≤ 100 nM | –
Fc1cccc(Cc2nc(-c3nc(C(F)F)n[nH]3)cn3ccnc23)c1F [Compound I-11, 8-(2,3-Difluorobenzyl)-6-(3-(difluoromethyl)-1H-1,2,4-triazol-5-yl)imidazo[1,2-a]pyrazine] | 2.1 | – | – | – | – | – | – | 72 nM | ≤ 100 nM | –

The next lines start with results.

Kp uu at 1 h [1, 3] | Kp uu at 1 h ([1]; CSF / unbound plasma, 1 mg/kg PO, @ 1 h, read-out: Kp,uu) | Kp uu at 2 h ([1]; CSF / unbound plasma, 1 mg/kg PO, @ 2 h) | Kp uu at 4 h ([1]; CSF / unbound plasma, 1 mg/kg PO, @ 4 h) | concentration at 1 h ([1]; CSF, 1 mg/kg PO, @ 1 h, read-out: CSF Conc.) | concentration at 2 h ([1]; CSF, 1 mg/kg PO, @ 2 h, read-out: CSF Conc.) | concentration at 4 h ([1]; CSF, 1 mg/kg PO, @ 4 h, read-out: CSF Conc.) | concentration at 1 h [1, 4] | EC50 [2] | SMILES | % of activity vs. vehicle (rats)
0.8 | – | – | – | – | – | – | 6 nM | ≤ 100 nM | Fc1cccc(Cc2nc(-c3nc(C(F)F)n[nH]3)cn3ccnc23)c1 [Compound I-3, 6-(3-(Difluoromethyl)-1H-1,2,4-triazol-5-yl)-8-(3-fluorobenzyl)imidazo[1,2-a]pyrazine] | –
1.7 | – | – | – | – | – | – | 284 nM | ≤ 100 nM | Fc1ccccc1Cc1nc(-c2nc(C(F)F)n[nH]2)cn2ccnc12 [Compound I-14, 8-(2-Fluorobenzyl)-6-(3-(difluoromethyl)-1H-1,2,4-triazol-5-yl)imidazo[1,2-a]pyrazine] | –
1.6 | – | – | – | – | – | – | 272 nM | ≤ 100 nM | Fc1ccccc1Cc1nc(-c2nc(C(F)(F)F)n[nH]2)cn2ncnc12 [Compound I-16, 8-(2-Fluorobenzyl)-6-(3-(trifluoromethyl)-1H-1,2,4-triazol-5-yl)-[1,2,4]triazolo[1,5-a]pyrazine] | –
